Measurements as given in US10844002B2, “Lipids and lipid compositions for the delivery of active agents” (priority 2014, dated 2020).

Columns and labels:
[1] = Encapsulation efficiency of RNA replicons (Quant-iT RiboGreen); assay type: physicochemical; conditions: LNP 40% cationic lipid, 10% DSPC, 48% cholesterol, 2% PEG-DMG; RNA replicon
Procedure: Briefly, lipids were dissolved in ethanol (2m1), a RNA replicon was dissolved in buffer (2 ml, 100 mM sodium citrate, pH 6) and these were mixed with 2 ml of buffer followed by 1 hour of equilibration. The mixture was then dialized overnight against 1×PBS. The resulting product contained liposomes, with ˜70-95% encapsulation efficiency.
The percentage of encapsulated RNA and RNA concentration were determined by Quant-iT RiboGreen RNA reagent kit (Invitrogen), following manufacturer's instructions. The ribosomal RNA standard provided in the kit was used to generate a standard curve. LNPs were diluted 10× or 100× in 1× TE buffer (from kit) before addition of the dye. Separately, LNPs were diluted 10× or 100× in 1× TE buffer containing 0.5% Triton X before addition of the dye (to disrupt the LNPs and thus to assay total RNA). Thereafter an equal amount of dye was added to each solution and then ˜180 μL of each solution after dye addition was loaded in duplicate into a 96 well tissue culture plate. The fluorescence (Ex 485 nm, Em 528 nm) was read on a microplate reader. All LNP formulations were dosed in vivo based on the encapsulated amount of RNA.

[2] = Measurement of mRNA encapsulation in lipid nanoparticles (Quant-iT Ribogreen); assay type: physicochemical; conditions: LNP cationic lipid/DSPC/cholesterol/stealth lipid, N:P 4:1, leptin mRNA
Procedure: All equipment and disposable supplies are certified free of RNase activity by the manufacturer or rendered RNase free by use of the RNaseZap reagent (LifeTechnologies). mRNA is encapsulated at a cationic lipid amine to mRNA phosphate (N:P) molar ratio of 4:1. Lipids (cationic lipid, DSPC, cholesterol and lipidated PEG or stealth lipid) are dissolved in ethanol. The molar ratios are 40:10:38:2, respectively. The mixture is sonicated briefly, then gently agitated for 5 minutes and then maintained at 37° C. until use. mRNA is exchanged into citrate buffer pH 5.8-6.0 by use of Amicon Ultra-15 centrifugal concentrators, and the final concentration is adjusted to 0.5 mg/ml and held at 37° C. until use. An equal volume of lipids in ethanol, mRNA in citrate buffer, and citrate buffer alone are drawn into disposable syringes. Tubing leading from syringes containing lipids and mRNA are attached to the T junction, and tubing leading from the syringe containing citrate buffer alone is paired with the tubing exiting the T-junction over a collection vessel containing a stir bar on an active stir plate. Syringes are placed in a syringe pump set to expel contents at a flow rate of 1 ml per minute.
The pump is activated, and the collected mRNA in lipid nanoparticles is transferred to SnakeSkin dialysis tubing (10,000 MWCO, Thermo Scientific). Material is dialyzed against RNAse- and pyrogen-free 1× phosphate buffered saline overnight at 4° C.
Percent encapsulation of mRNA in lipid nanoparticles is determined using the Quant-iT Ribogreen RNA Assay kit (Life Technologies). The LNP-mRNA suspension is assayed in buffer (mRNA outside the particle), and buffer plus Triton X-100 detergent (total mRNA). The difference calculated is the mRNA inside the particle. Prepare a 1000 ng/mL stock from the RNA provided in the kit and use this to generate a standard curve (0 ng/ml, 15.63-1000 ng/ml) in TE and TE+0.75% Triton X-100. Prepare LNP-mRNA samples in TE buffer and TE buffer+0.75% Triton X-100 with appropriate dilution so that reading is in the range of standard curve (400-2,000 fold). In a 384-well plate (Costar non-treated #3573) add 0.04 ml of standard (in duplicate) or sample (in triplicate) per well. Dilute Ribogreen reagent 240-fold in TE buffer and add 0.06 ml per well. Mix contents of wells and measure fluorescence (excitation=480 nm, emission=520 nm). Subtract background values (no RNA) from standard and test sample values and determine the concentrations of RNA in the samples using the standard curves. Determine the percent encapsulation of the sample by dividing the difference in concentrations between sample+triton and sample in buffer alone by the sample+triton concentration.

[3] = Characterization of LNP formulations: Z average particle diameter and polydispersity index; assay type: physicochemical; conditions: LNP formulation; for Zav (nm): Z average particle diameter; for polydispersity: polydispersity index
Description: The lipid nanoparticles have a size of about 1 to about 2,500 nm, about 1 to about 1,500 nm, about 1 to about 1,000 nm, in a sub-embodiment about 50 to about 600 nm, in a sub-embodiment about 50 to about 400 nm, in a sub-embodiment about 50 to about 250 nm, and in a sub-embodiment about 50 to about 150 nm. Unless indicated otherwise, all sizes referred to herein are the average sizes (diameters) of the fully formed nanoparticle, as measured by dynamic light scattering on a Malvern Zetasizer. The nanoparticle sample is diluted in phosphate buffered saline (PBS) so that the count rate is approximately 200-400 kcts. The data is presented as a weighted average of the intensity measure.

[4] = test system: RSV F protein; assay type: in vivo; conditions: Table 4; BALB/c mice, intramuscular, 1 ng vA375 replicon in LNP, days 0 and 21

Row | Structure (SMILES) | Encapsulation efficiency (RNA %) [1] [%] | % encapsulation (mRNA Leptin) [2] [%] | Zav (nm) [3] [nm] | polydispersity [3] | Log10(IgG titer), 1 ng RNA (RSV-F), 2 weeks post 2nd immunization [4]
1 | CCCCC/C=C\C/C=C\CCCCCCCCOc1ccc(COC(=O)CCCN(C)C)c(OCCCCCCCC/C=C\C/C=C\CCCCC)c1 [Example 19, 2,4-bis((9Z,12Z)-octadeca-9,12-dienyloxy)benzyl 4-(dimethylamino)butanoate] | 79.9 | 84.3 | 133.2 | 0.074 | 4.68
2 | CCCCC/C=C\C/C=C\CCCCCCCCOc1cc(COC(=O)OCCCN(C)C)c(OCCCCCCCC/C=C\C/C=C\CCCCC)cc1C [Example 14, 3-(dimethylamino)propyl 4-methyl-2,5-bis((9Z,12Z)-octadeca-9,12-dien-1-yloxy)benzyl Carbonate] | 78.3 | 77.9 | 127.7 | 0.102 | 3.85
3 | CCCCC/C=C\C/C=C\CCCCCCCCOc1cc(COC(=O)CCCN(C)C)c(OCCCCCCCC/C=C\C/C=C\CCCCC)cc1C [Example 16, 4-methyl-2,5-bis((9Z,12Z)-octadeca-9,12-dien-1-yloxy)benzyl 4-(dimethylamino)butanoate] | 88.0 | 85.1 | 115.5 | 0.108 | 4.40
